Laboratory results from patent US9210936B2, “Biocidal compositions and methods of use” (Dow Global Technologies LLC, priority 2011, dated 2015).

How the values were obtained:
Type in all cases: cell-based
[1] = tested on: Desulfovibrio longus ATCC 51456; test: Biocidal efficacy (MBC, minimum tested biocide concentration for complete bacterial kill) against anaerobic bacteria in salt solution; conditions: 35° C., 2 hours, 10^6 to 10^7 CFU/mL; for Concentration (ppm active) for anaerobic bacteria kill, DTEA: DTEA part of the MBC for complete bacterial kill; for Concentration (ppm active) for anaerobic bacteria kill, THPS: THPS part of the MBC for complete bacterial kill
Experimental: The synergy indexes reported in the following examples are calculated using the following equation: Synergy Index=Ca/CA+Cb/CB
Ca: Concentration of biocide A required to achieve a certain level of bacterial kill when used in combination with B
CA: Concentration of biocide A required to achieve a certain level of bacterial kill when used alone
Cb: Concentration of biocide B required to achieve a certain level of bacterial kill when used in combination with A
CB: Concentration of biocide B required to achieve a certain level of bacterial kill when used alone.
A synergy index (SI) of 1 indicates additivity, a synergy index of less than 1 indicates synergy, and a synergy index greater than 1 indicates antagonism.
Inside an anaerobic chamber (Bactron anaerobic chamber), a deoxygenated sterile salt solution (3.1183 g of NaCl, 1.3082 mg of NaHCO3, 47.70 mg of KCl, 72.00 mg of CaCl2, 54.49 mg of MgSO4, 172.28 mg of Na2SO4, 43.92 mg of Na2CO3 in 1 L water) is inoculated with Desulfovibrio longus ATCC 51456 to a final bacterial concentration of 10^6 to 10^7 CFU/mL. […] After the treated cell suspensions are incubated at 35° C. for 2 hours, the biocidal efficacy is determined by minimum tested biocide concentration for complete bacterial kill in the aliquots (MBC).

[2] = tested on: Biofilms of Desulfovibrio longus ATCC 51456; test: Biofilm removal, remaining biofilm by crystal violet staining; conditions: 2 hours treatment, optical density of biofilm captured crystal violet at 580 nm
Experimental: (§1) Modified Baar's Medium (ATCC #1249 Broth) is used as culture medium and the medium is changed after 48 hrs of incubation.
The biofilm is fixed with 99% methanol and, after air drying, the pegs are stained with 2% (w/v) crystal violet and washed with tap water. The pegs are then air dried and the crystal violet bound to the biofilm is extracted with 33% glacial acetic acid. The total remaining biofilm is determined by the optical density (OD) of the extracted solution at 580 nm.

[3] = tested on: Biofilms of Desulfovibrio longus ATCC 51456 (sessile bacteria); test: Sessile bacteria kill in biofilms grown in Calgary Biofilm Device; conditions: 72 hours biofilm, 2 hours treatment, anaerobic
Experimental: as §1

| Compound | Concentration (ppm active) for anaerobic bacteria kill, DTEA [1] [ppm active] | Concentration (ppm active) for anaerobic bacteria kill, THPS [1] [ppm active] | Remaining biofilm, OD580 ([2]; 50 ppm active) | Remaining biofilm, OD580 ([2]; 100 ppm active) | Concentration (ppm active) for 3 log10 bacterial reduction [3] [ppm active] |
| --- | --- | --- | --- | --- | --- |
| tetrakis(hydroxymethyl)phosphonium sulfate [THPS] | 0.00 | 19.75 | 0.57 | 0.68 | 50 |
| CCCCCCCCCCSCCN [DTEA, 2-(decylthio)ethanamine] | 20.00 | 0.00 | – | – | – |
